Results reported in PubChem BioAssay AID192 (DTP/NCI, 2004).
Values joined by “and” are separate entries in the source; they are usually repeats but may differ in a detail not shown here. Equal values may be shown once. Toxic doses and inconclusive results are not listed. How the source made its calls: active means survival T/C of 150% or more; inactive means T/C below 125% in these data.

Tested on: BDF1 mice, B16 melanoma ip, median survival T/C
Experiment: NCI In Vivo Anticancer Drug Screen. Data for tumor model B16 Melanoma (intraperitoneal) in B6D2F1 (BDF1) mice
Settings: endpoint: median survival time, higher = longer survival
Outline: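 Vehicle-treated animals serve as the reference (C); treated animals (T) are scored for survival or tumor size after tumor transplantation.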

[1] = dose: 6.25 mg/kg/injection, schedule: Q01DX009 (ip), vehicle: saline
[2] = dose: 12.5 mg/kg/injection, schedule: Q01DX009 (ip), vehicle: saline
[3] = dose: 25.0 mg/kg/injection, schedule: Q01DX009 (ip), vehicle: saline
[4] = dose: 50.0 mg/kg/injection, schedule: Q01DX009 (ip), vehicle: saline
[5] = dose: 50.0 mg/kg/injection, schedule: Q01DX009 (ip), vehicle: Klucel (hydroxypropylcellulose) (HPC)
[6] = dose: 100.0 mg/kg/injection, schedule: Q01DX009 (ip), vehicle: Klucel (hydroxypropylcellulose) (HPC)
[7] = dose: 100.0 mg/kg/injection, schedule: Q04DX003 (ip), vehicle: Klucel (hydroxypropylcellulose) (HPC)
[8] = dose: 400.0 mg/kg/injection, schedule: Q04DX003 (ip), vehicle: Klucel (hydroxypropylcellulose) (HPC)
[9] = dose: 100.0 mg/kg/injection, schedule: Q01DX009 (ip), vehicle: saline
[10] = dose: 200.0 mg/kg/injection, schedule: Q01DX009 (ip), vehicle: saline
[11] = dose: 200.0 mg/kg/injection, schedule: Q04DX003 (ip), vehicle: Klucel (hydroxypropylcellulose) (HPC)
[12] = dose: 12.5 mg/kg/injection, schedule: Q01DX009 (ip), vehicle: Klucel (hydroxypropylcellulose) (HPC)
[13] = dose: 25.0 mg/kg/injection, schedule: Q01DX009 (ip), vehicle: Klucel (hydroxypropylcellulose) (HPC)
[14] = dose: 100.0 mg/kg/injection, schedule: Q01DX009 (ip), vehicle: saline with Tween-80
[15] = dose: 200.0 mg/kg/injection, schedule: Q01DX009 (ip), vehicle: saline with Tween-80
[16] = dose: 6.25 mg/kg/injection, schedule: Q01DX009 (ip), vehicle: Klucel (hydroxypropylcellulose) (HPC)
[17] = dose: 3.13 mg/kg/injection, schedule: Q01DX009 (ip), vehicle: saline with Tween-80
[18] = dose: 6.25 mg/kg/injection, schedule: Q01DX009 (ip), vehicle: saline with Tween-80
[19] = dose: 3.12 mg/kg/injection, schedule: Q01DX009 (ip), vehicle: Klucel (hydroxypropylcellulose) (HPC)
[20] = dose: 400.0 mg/kg/injection, schedule: Q01DX009 (ip), vehicle: saline

Measured: T/C

CC(C)NCC(O)c1ccc(O)c(O)c1 (stereo unspecified)
inactive: dose: 17.5 mg/kg/injection, schedule: Q01DX009 (ip), vehicle: Klucel (hydroxypropylcellulose) (HPC) 101 % of control | dose: 35.0 mg/kg/injection, schedule: Q01DX009 (ip), vehicle: Klucel (hydroxypropylcellulose) (HPC) 99 % of control | dose: 70.0 mg/kg/injection, schedule: Q01DX009 (ip), vehicle: Klucel (hydroxypropylcellulose) (HPC) 94 % of control

CCCCCCCCCCCCCCCCP(=O)(OCCOCCCCCC)OCCOCCCCCC
inactive: dose: 3.12 mg/kg/injection, schedule: Q01DX009 (ip), vehicle: saline 103 % of control | [1] 116 % of control | [2] 109 % of control | [3] 102 % of control | [4] 94 % of control

O=C(CCN1CCCCCCC1)c1cccc([N+](=O)[O-])c1
inactive: [5] 100 % of control | [6] 97 % of control

CNC(c1ccncc1)C(NC)c1ccncc1 (stereo unspecified)
inactive: [7] 95 % of control | [8] 91 % of control

Cn1c(=O)c2c(ncn2C)n(C)c1=O
inactive: [4] 116 % of control | [9] 103 % of control | [10] 109 % of control

OC12CCC[N+]1(Cc1ccccc1)CCC2 (stereo unspecified)
inactive: [2] 109 % of control | [3] 109 % of control | [4] 102 % of control

O=[N+]([O-])c1ccc(C(O)CC(O)(C(F)(F)F)C(F)(F)F)cc1 (stereo unspecified)
inactive: [7] 97 % of control | [11] 97 % of control | [8] 95 % of control

CCOc1ccc(N2C(=O)CSC2=S)cc1
inactive: [12] 103 % of control | [13] 91 % of control | [5] 95 % of control

CSc1nc(N)nc2c1ncn2C1OC(CO)C(O)C1O (stereo unspecified)
inactive: dose: 100.0 mg/kg/injection, schedule: Q01DX009 (ip), vehicle: suspension in saline 115 % of control | dose: 200.0 mg/kg/injection, schedule: Q01DX009 (ip), vehicle: suspension in saline 110 % of control

CCC1=C(c2cc(Cl)c3ccccc3c2OCC(=O)O)OC(CC)(C(=O)c2cc(Cl)c3ccccc3c2OCC(=O)O)CC1 (stereo unspecified)
inactive: [13] 102 % of control | dose: 30.0 mg/kg/injection, schedule: Q01DX009 (ip), vehicle: saline with Tween-80 90 % of control | [5] 102 % of control | dose: 60.0 mg/kg/injection, schedule: Q01DX009 (ip), vehicle: saline with Tween-80 93 % of control | [6] 102 % of control | dose: 100.0 mg/kg/injection, schedule: Q04DX003 (ip), vehicle: saline with Tween-80 110 % of control | dose: 120.0 mg/kg/injection, schedule: Q01DX009 (ip), vehicle: saline with Tween-80 93 % of control | dose: 200.0 mg/kg/injection, schedule: Q04DX003 (ip), vehicle: saline with Tween-80 95 % of control | dose: 240.0 mg/kg/injection, schedule: Q01DX009 (ip), vehicle: saline with Tween-80 86 % of control

Nc1nc2c(c(=O)[nH]1)NC(CCNc1ccc(C(=O)NC(CCC(=O)O)C(=O)O)cc1)CN2 (stereo unspecified)
inactive: [3] 94 % of control | [4] 102 % of control | [9] 110 % of control

O=c1c(O)c(-c2ccc(O)c(O)c2)oc2cc(O)cc(O)c12
inactive: dose: 25.0 mg/kg/injection, schedule: Q02DX009 (ip), vehicle: saline 89 % of control | dose: 50.0 mg/kg/injection, schedule: Q02DX009 (ip), vehicle: saline 88 % of control | dose: 100.0 mg/kg/injection, schedule: Q02DX009 (ip), vehicle: saline 93 % of control | dose: 200.0 mg/kg/injection, schedule: Q02DX009 (ip), vehicle: saline with Tween-80 86 % of control | dose: 200.0 mg/kg/injection, schedule: Q02DX009 (ip), vehicle: saline 87 % of control

CCOC(=O)CC(C)(N)NC(N)=O (stereo unspecified)
inactive: [14] 92 % of control | [15] 95 % of control | dose: 400.0 mg/kg/injection, schedule: Q01DX009 (ip), vehicle: saline with Tween-80 90 % of control

CC(C)=CCC/C(C)=C/CNCCc1c[nH]c2ccccc12
inactive: [16] 107 % of control | [12] 111 % of control

ClC1CC[N-]CC1.ClC1CC[N-]CC1.[Cl][Pt+2]([Cl])([Cl])[Cl]
inactive: [17] 104 % of control | [18] 104 % of control | dose: 12.5 mg/kg/injection, schedule: Q01DX009 (ip), vehicle: saline with Tween-80 117 % of control

Cc1ccc([N+](=O)[O-])c2ccccc12
inactive: [14] 97 % of control | [15] 88 % of control

COc1ccc2c(=O)c(C)c(-c3ccccc3)oc2c1CN(C)C
inactive: dose: 0.19 mg/kg/injection, schedule: Q01DX009 (ip), vehicle: saline 95 % of control | dose: 0.39 mg/kg/injection, schedule: Q01DX009 (ip), vehicle: saline 103 % of control | dose: 0.78 mg/kg/injection, schedule: Q01DX009 (ip), vehicle: saline 100 % of control | dose: 1.56 mg/kg/injection, schedule: Q01DX009 (ip), vehicle: saline 96 % of control

NC(N)=NCCCOc1ccccc1
inactive: [19] 102 % of control | [16] 108 % of control | [12] 113 % of control | [13] 100 % of control | [5] 100 % of control

C=C(NC(C)=O)C(=O)CCC(N)=O
inactive: dose: 5.0 mg/kg/injection, schedule: Q01DX009 (ip), vehicle: saline 92 % of control | dose: 10.0 mg/kg/injection, schedule: Q01DX009 (ip), vehicle: saline 102 % of control | dose: 20.0 mg/kg/injection, schedule: Q01DX009 (ip), vehicle: saline 97 % of control

CC(=O)NC(Cc1ccc(N(CCCl)CCCl)cc1)C(=O)O (stereo unspecified)
inactive: [17] 109 % of control | [18] 117 % of control | dose: 25.0 mg/kg/injection, schedule: Q01DX009 (ip), vehicle: saline with Tween-80 113 % of control

O=C(/C=C/C(=O)Oc1c(Cl)c(Cl)c(Cl)c(Cl)c1Cl)Oc1c(Cl)c(Cl)c(Cl)c(Cl)c1Cl
inactive: [6] 86 % of control

CC(NC(=O)OCc1ccccc1)C(=O)O (stereo unspecified)
inactive: [19] 97 % of control | [16] 88 % of control | [12] 94 % of control | [13] 88 % of control | [7] 88 % of control

Clc1ccc(NC2=NCCCS2)c2ccccc12
inactive: [13] 105 % of control | [5] 92 % of control | [6] 95 % of control

COC(=O)C(Cc1c[nH]c2ccccc12)NC(=O)C(NC(=O)OC(C)(C)C)C(C)C (stereo unspecified)
inactive: [5] 91 % of control

CC(=O)CC(=O)NCc1cccc(C)n1
inactive: [9] 106 % of control | [10] 111 % of control | [20] 112 % of control

O=C(O)C(CSC(c1ccccc1)c1ccccc1)NC(=O)C(c1ccccc1)c1ccccc1 (stereo unspecified)
inactive: [7] 102 % of control | [11] 105 % of control | [8] 92 % of control

CC12CC(C(=O)O)C3(O)CC(C)(C1)CC(C)(C2)C3 (stereo unspecified) (tested in a mixture with another compound)
inactive: [12] 97 % of control and 101 % of control | [13] 93 % of control and 107 % of control | [5] 94 % of control and 96 % of control | [6] 96 % of control and 103 % of control | dose: 200.0 mg/kg/injection, schedule: Q01DX009 (ip), vehicle: Klucel (hydroxypropylcellulose) (HPC) 94 % of control and 98 % of control

COc1cccc(/C=c2\[nH]c(=O)/c(=C/c3cccc(OC)c3OC)[nH]c2=O)c1OC
inactive: [12] 89 % of control | [13] 99 % of control | [5] 92 % of control and 96 % of control

NC(CCC(=O)NCC(=O)O)C(=O)O (stereo unspecified)
inactive: [4] 92 % of control | [9] 91 % of control | [10] 101 % of control | [20] 88 % of control

C[n+]1c2ccccc2cc2ccccc21
inactive: dose: 1.56 mg/kg/injection, schedule: Q01DX009 (ip), vehicle: saline with Tween-80 97 % of control | [18] 90 % of control and 94 % of control

c1nnc(NCNc2nncs2)s1
inactive: [1] 108 % of control | [3] 122 % of control | dose: 50.0 mg/kg/injection, schedule: Q04DX003 (ip), vehicle: saline 109 % of control | dose: 100.0 mg/kg/injection, schedule: Q04DX003 (ip), vehicle: saline 119 % of control

COc1ccc(CN(CCOC(=O)c2ccc(OC)cc2)CCN(CCOC(=O)c2ccc(OC)cc2)Cc2ccc(OC)cc2)cc1
inactive: dose: 3.12 mg/kg/injection, schedule: Q01DX009 (ip), vehicle: other 100 % of control | dose: 6.25 mg/kg/injection, schedule: Q01DX009 (ip), vehicle: other 89 % of control | dose: 12.5 mg/kg/injection, schedule: Q01DX009 (ip), vehicle: other 90 % of control | dose: 25.0 mg/kg/injection, schedule: Q01DX009 (ip), vehicle: other 92 % of control
